Assay results from US20250270213A1, “PI3Ka INHIBITORS” (Synnovation Therapeutics, Inc., priority 2022, published 2025).

These compounds were tested on T47D (PIK3CA H1047R) cells (assay: pS473 AKT assay with 2.5% FBS, T47D cells). Conditions: Homo sapiens, pSer473 AKT, DMEM with 2.5% FBS, 2 h treatment, read-out: T47D_IC50.
Type: cell-based
Method in brief: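 T47D (PIK3CA H1047R) cells were switched to DMEM with 2.5% FBS and exposed to compounds for 2 h. After paraformaldehyde fixation, pSer473 AKT was detected by in-cell ELISA (rabbit primary, HRP anti-rabbit secondary, chemiluminescence); IC50 values were fitted from the concentration series.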
With `Cc1cc(C(C)Nc2ccc(Cl)nc2-c2ncn(C)n2)c2c(c1)c(=O)n(C)c1c2cnn1C1CCNCC1` (stereo not shown) [Compound 176, 9-(1-((6-Chloro-2-(1-methyl-1H-1,2,4-triazol-3-yl)pyridin-3-yl)amino)ethyl)-4,7-dimethyl-3-(piperidin-4-yl)-3,4-dihydro-5H-pyrazolo[3,4-c]isoquinolin-5-one] the IC50 was < 1000 nM.
`Cc1cc(C(C)Nc2ccc(Cl)nc2-c2ncn(C)n2)c2c(c1)c(=O)n(C)c1c2cnn1C1CCN(CCO)CC1` (stereo not shown) [Compound 177, 9-[1-[[6-Chloro-2-(1-methyl-1,2,4-triazol-3-yl)-3-pyridyl]amino]ethyl]-3-[1-(2-hydroxyethyl)-4-piperidyl]-4,7-dimethyl-pyrazolo[3,4-c]isoquinolin-5-one] was tested, and the IC50 was < 1000 nM.
In the case of `Cc1cc(C(C)Nc2ccc(Cl)nc2-c2ncn(C)n2)c2c(c1)c(=O)n(C)c1c2cnn1C1CCN(Cc2nccn2C)CC1` (stereo not shown) [Compound 178, 9-(1-((6-chloro-2-(1-methyl-1H-1,2,4-triazol-3-yl)pyridin-3-yl)amino)ethyl)-4,7-dimethyl-3-(1-((1-methyl-1H-imidazol-2-yl)methyl)piperidin-4-yl)-3,4-dihydro-5H-pyrazolo[3,4-c]isoquinolin-5-one], the IC50 is reported as < 1000 nM.
`Cc1cc(C(C)Nc2ccc(Cl)nc2-c2ncn(C)n2)c2c(c1)c(=O)n(C)c1c2cnn1C1CCN(C2COC2)CC1` (stereo not shown) [Compound 179, 9-(1-((6-chloro-2-(1-methyl-1H-1,2,4-triazol-3-yl)pyridin-3-yl)amino)ethyl)-4,7-dimethyl-3-(1-(oxetan-3-yl)piperidin-4-yl)-3,4-dihydro-5H-pyrazolo[3,4-c]isoquinolin-5-one] was tested, and the IC50 was < 1000 nM.
`Cc1cc(C(C)Nc2ccc(Cl)nc2-c2ncn(C)n2)c2c(c1)c(=O)n(C)c1c2cnn1C1CCN(CCC#N)CC1` (stereo not shown) [Compound 180, 3-[4-[9-[1-[[6-Chloro-2-(1-methyl-1,2,4-triazol-3-yl)-3-pyridyl]amino]ethyl]-4,7-dimethyl-5-oxo-pyrazolo[3,4-c]isoquinolin-3-yl]-1-piperidyl]propanenitrile] was tested, and the IC50 was < 1000 nM.
With `Cc1cc(C(C)Nc2ccc(Cl)nc2-c2ncn(C)n2)c2c(c1)c(=O)n(C)c1c2cnn1C1CCN(CC(F)F)CC1` (stereo not shown) [Compound 181, 9-(1-((6-Chloro-2-(1-methyl-1H-1,2,4-triazol-3-yl)pyridin-3-yl)amino)ethyl)-3-(1-(2,2-difluoroethyl)piperidin-4-yl)-4,7-dimethyl-3,4-dihydro-5H-pyrazolo[3,4-c]isoquinolin-5-one] the IC50 was < 1000 nM.
In the case of `CC(=O)N1CCC(n2ncc3c4c(C(C)Nc5ccc(Cl)nc5-c5cnn(C)c5)cc(C)cc4c(=O)n(C)c32)CC1` (stereo not shown) [Compound 182, 3-(1-Acetylpiperidin-4-yl)-9-(1-((6-chloro-2-(1-methyl-1H-pyrazol-4-yl)pyridin-3-yl)amino)ethyl)-4,7-dimethyl-3,4-dihydro-5H-pyrazolo[3,4-c]isoquinolin-5-one], the IC50 is reported as < 1000 nM.
With `Cc1cc(C(C)Nc2ccc(Cl)nc2N2CCC(O)CC2)c2c(c1)c(=O)n1c3c2cnn3CCC1` (stereo not shown) [Compound 291, 10-(1-((6-chloro-2-(4-hydroxypiperidin-1-yl)pyridin-3-yl)amino)ethyl)-8-methyl-4,5-dihydro-3H,6H-2,2a,5a-triazaaceanthrylen-6-one] the IC50 was < 1000 nM.
`CNC(=O)C1CCN(c2nc(Cl)ccc2NC(C)c2cc(C)cc3c(=O)n4c5c(cnn5CCC4)c23)CC1` (stereo not shown) [Compound 292, 1-(6-chloro-3-((1-(8-methyl-6-oxo-4,5-dihydro-3H,6H-2,2a,5a-triazaaceanthrylen-10-yl)ethyl)amino)pyridin-2-yl)-N-methylpiperidine-4-carboxamide] was tested, and the IC50 was < 1000 nM.
`CC(=O)N1CCN(c2nc(Cl)ccc2NC(C)c2cc(C)cc3c(=O)n4c5c(cnn5CCC4)c23)CC1` (stereo not shown) [Compound 293, 10-(1-((2-(4-acetylpiprerazin-1-yl)-6-chloropyridin-3-yl)amino)ethyl)-8-methyl-4,5-dihydro-3H,6H-2,2a,5a-triazaaceanthrylen-6-one] was tested, and the IC50 was < 1000 nM.
For `Cc1cc(C(C)Nc2ccc(Cl)nc2-c2nnco2)c2c(c1)c(=O)n1c3c2cnn3CCC1` (stereo not shown) [Compound 294, 10-(1-((6-chloro-2-(1,3,4-oxadiazol-2-yl)pyridin-3-yl)amino)ethyl)-8-methyl-4,5-dihydro-3H,6H-2,2a,5a-triazaaceanthrylen-6-one], the IC50 was < 1000 nM.
`Cc1cc(C(C)Nc2ccc(Cl)nc2-c2ncn(C)n2)c2c(c1)c(=O)n1c3c2cnn3CCC1` (stereo not shown) [Compound 296, 10-(1-((6-chloro-2-(1-methyl-1H-1,2,4-triazol-3-yl)pyridin-3-yl)amino)ethyl)-8-methyl-4,5-dihydro-3H,6H-2,2a,5a-triazaaceanthrylen-6-one] was tested, and the IC50 was < 1000 nM.
For `Cc1cc(C(C)Nc2ccc(Cl)nc2-c2ncn(CCO)n2)c2c(c1)c(=O)n1c3c2cnn3CCC1` (stereo not shown) [Compound 297, 10-(1-((6-chloro-2-(1-(2-hydroxyethyl)-1H-1,2,4-triazol-3-yl)pyridin-3-yl)amino)ethyl)-8-methyl-4,5-dihydro-3H,6H-2,2a,5a-triazaaceanthrylen-6-one], the IC50 was < 1000 nM.
For `Cc1cc(C(C)Nc2ccc(Cl)nc2-c2nnn(C)n2)c2c(c1)c(=O)n1c3c2cnn3CCC1` (stereo not shown) [Compound 298, 10-(1-((6-chloro-2-(2-methyl-2H-tetrazol-5-yl)pyridin-3-yl)amino)ethyl)-8-methyl-4,5-dihydro-3H,6H-2,2a,5a-triazaaceanthrylen-6-one], the IC50 was < 1000 nM.
`Cc1cc(C(C)Nc2ccc(Cl)nc2-c2cnn(C3CCOCC3)c2)c2c(c1)c(=O)n1c3c2cnn3CCC1` (stereo not shown) [Compound 299, 10-(1-((6-chloro-2-(1-(tetrahydro-2H-pyran-4-yl)-1H-pyrazol-4-yl)pyridin-3-yl)amino)ethyl)-8-methyl-4,5-dihydro-3H,6H-2,2a,5a-triazaaceanthrylen-6-one] was tested, and the IC50 was < 1000 nM.
With `Cc1cc(C(C)Nc2ccc(Cl)nc2-c2cnn(CCO)c2)c2c(c1)c(=O)n1c3c2cnn3CCC1` (stereo not shown) [Compound 300, 10-(1-((6-chloro-2-(1-(2-hydroxyethyl)-1H-pyrazol-4-yl)pyridin-3-yl)amino)ethyl)-8-methyl-4,5-dihydro-3H,6H-2,2a,5a-triazaaceanthrylen-6-one] the IC50 was < 1000 nM.
In the case of `Cc1cc(C(C)Nc2ccc(Cl)nc2-c2cnn(C3CCN(C)CC3)c2)c2c(c1)c(=O)n1c3c2cnn3CCC1` (stereo not shown) [Compound 301], the IC50 is reported as < 1000 nM.
In the case of `Cc1cc(C(C)Nc2ccc(Cl)nc2-c2cnn(C3CCCN(C)C3)c2)c2c(c1)c(=O)n1c3c2cnn3CCC1` (stereo not shown) [Compound 302], the IC50 is reported as < 1000 nM.
For `Cc1cc(C(C)Nc2ccc(Cl)nc2-c2cnn(C3CCN(C)C3)c2)c2c(c1)c(=O)n1c3c2cnn3CCC1` (stereo not shown) [Compound 303, 10-(1-((6-chloro-2-(1-(1-methylpyrrolidin-3-yl)-1H-pyrazol-4-yl)pyridin-3-yl)amino)ethyl)-8-methyl-4,5-dihydro-3H,6H-2,2a,5a-triazaaceanthrylen-6-one], the IC50 was < 1000 nM.
In the case of `Cc1cc(C(C)Nc2ccc(Cl)nc2-c2cnn(C3CN(C)C3)c2)c2c(c1)c(=O)n1c3c2cnn3CCC1` (stereo not shown) [Compound 304, 10-(1-((6-chloro-2-(1-(1-methylazetidin-3-yl)-1H-pyrazol-4-yl)pyridin-3-yl)amino)ethyl)-8-methyl-4,5-dihydro-3H,6H-2,2a,5a-triazaaceanthrylen-6-one], the IC50 is reported as < 1000 nM.
In the case of `Cc1cc(C(C)Nc2ccc(Cl)nc2-c2cnn(C3CCN(C(=O)N(C)C)CC3)c2)c2c(c1)c(=O)n1c3c2cnn3CCC1` (stereo not shown) [Compound 305, 4-(4-(6-chloro-3-((1-(8-methyl-6-oxo-4,5-dihydro-3H,6H-2,2a,5a-triazaaceanthrylen-10-yl)ethyl)amino)pyridin-2-yl)-1H-pyrazol-1-yl)-N,N-dimethylpiperidine-1-carboxamide], the IC50 is reported as < 1000 nM.
For `Cc1cc(C(C)Nc2ccc(Cl)nc2-c2ccnc(C)c2)c2c(c1)c(=O)n1c3c2cnn3CCC1` (stereo not shown) [Compound 306, 10-(1-((6-chloro-2′-methyl-[2,4′-bipyridin]-3-yl)amino)ethyl)-8-methyl-4,5-dihydro-3H,6H-2,2a,5a-triazaaceanthrylen-6-one], the IC50 was < 1000 nM.
`Cc1cc(C(C)Nc2ccc(Cl)nc2-c2cccnc2)c2c(c1)c(=O)n1c3c2cnn3CCC1` (stereo not shown) [Compound 307, 10-(1-((6-chloro-[2,3′-bipyridin]-3-yl)amino)ethyl)-8-methyl-4,5-dihydro-3H,6H-2,2a,5a-triazaaceanthrylen-6-one] was tested, and the IC50 was < 1000 nM.
With `Cc1cc(C(C)Nc2ccc(Cl)nc2-c2ccc(=O)n(C)c2)c2c(c1)c(=O)n1c3c2cnn3CCC1` (stereo not shown) [Compound 308, 10-(1-((6-chloro-1′-methyl-6′-oxo-1′,6′-dihydro-[2,3′-pyridin]-3-yl)amino)ethyl)-8-methyl-4,5-dihydro-3H,6H-2,2a,5a-triazaaceanthrylen-6-one] the IC50 was < 1000 nM.
In the case of `CNC(=O)c1ccc(-c2nc(Cl)ccc2NC(C)c2cc(C)cc3c(=O)n4c5c(cnn5CCC4)c23)cc1F` (stereo not shown) [Compound 309, 4-(6-chloro-3-((1-(8-methyl-6-oxo-4,5-dihydro-3H,6H-2,2a,5a-triazaaceanthrylen-10-yl)ethyl)amino)pyridin-2-yl)-2-fluoro-N-methylbenzamide], the IC50 is reported as < 1000 nM.
With `CNC(=O)c1ccc(-c2nc(Cl)ccc2NC(C)c2cc(C)cc3c(=O)n4c5c(cnn5CCC4)c23)cn1` (stereo not shown) [Compound 310, 6-chloro-N-methyl-3-((1-(8-methyl-6-oxo-4,5-dihydro-3H,6H-2,2a,5a-triazaaceanthrylen-10-yl)ethyl)amino)-[2,3′-bipyridine]-6′-carboxamide] the IC50 was < 1000 nM.
For `COc1ccc(-c2nc(Cl)ccc2NC(C)c2cc(C)cc3c(=O)n4c5c(cnn5CCC4)c23)cn1` (stereo not shown) [Compound 311, 10-(1-((6-chloro-6′-methoxy-[2,3′-bipyridin]-3-yl)amino)ethyl)-8-methyl-4,5-dihydro-3H,6H-2,2a,5a-triazaaceanthrylen-6-one], the IC50 was < 1000 nM.
`COc1cc(-c2nc(Cl)ccc2NC(C)c2cc(C)cc3c(=O)n4c5c(cnn5CCC4)c23)ccn1` (stereo not shown) [Compound 312, 10-(1-((6-chloro-2′-methoxy-[2,4′-bipyridin]-3-yl)amino)ethyl)-8-methyl-4,5-dihydro-3H,6H-2,2a,5a-triazaaceanthrylen-6-one] was tested, and the IC50 was < 1000 nM.
